Results published in patent US8765720B2, “Combination therapy for the treatment of multiple myeloma” (Cephalon, Inc., priority 2009, dated 2014).

Tests used:
LAGκ-1A tumor = test: Intramuscular LAGκ-1A tumor xenograft model (serum hIgG, tumor volume); settings: for serum hIgG levels: 28 days of treatment; for serum hIgG levels and tumor volume vs vehicle: alone or together
Procedure: (§1) Six- to 8-week-old male severe combined immunodeficient (SCID) mice were obtained from the Jackson Laboratory (Bar Harbor, Me.) and maintained in a specific pathogen-free area in our animal resources facility. All animal studies were conducted according to protocols approved by the Institutional Animal Care and Use Committee. Animals were anesthetized with ketamine, xylazine, and isoflurane prior to surgery and were euthanized when tumors reached 2 cm in diameter.
(§2) Biopsy tissue was surgically implanted in the hind limbs of anesthetized SCID mice and passaged through succeeding generations (32).
(§3) Myeloma tumors (LAGκ-1A or LAGκ-1B) were excised from an anesthetized donor mouse, sectioned into 20 to 40 mm^3 pieces, and surgically implanted into the left superficial gluteal muscle of anesthetized naive SCID mice. Recipient mice received weekly injections of anti-asialo GM1 rabbit serum (Wako Bioproducts, Richmond, Va.) to further suppress immune activity. Mice were blindly assigned to one of the experimental groups, and treatment was initiated 7 to 21 days after tumor implantation. COMPOUND 1 was administered via oral gavage daily (0.5-5.0 mg/kg) or twice weekly (5-10 mg/kg). COMPOUND 1 was also administered twice weekly (W, F) via either IV injection (0.5-3.0 mg/kg) or oral gavage (10 mg/kg), as specified. Melphalan (1 mg/kg) was provided via weekly intraperitoneal (IP) injections (W). Bortezomib (0.5 mg/kg) was dispensed twice weekly (T, Th) via IV injection. Control treatment consisted of COMPOUND 1 diluent (3.2 mL 5% mannitol and 800 μL propylene glycol) alone.
Mice bearing MM tumors underwent weekly retro-orbital bleeds. Resulting samples were spun at 13,000 rpm for 30 minutes to isolate serum. The hIgG ELISA kit (Bethyl Laboratories, Montgomery, Tex.) was used according to the manufacturer's specifications. Absorbance at 450 nm with a reference wavelength of 550 nm was determined on a μQuant microplate spectrophotometer with KC Junior software (Bio-Tek Instruments, Winooski, Vt.). Data graphed are the mean±SEM with n=7-8 mice/group.
(§4) As a direct measurement of tumor growth, calipers were used to assess tumor volume weekly, and the formula for an ellipsoid volume was applied ( 4/3π×[width/2]^2×[length/2]).
(§5) Percent inhibition of tumor growth is represented as the tumor volume of the test drug group over the tumor volume of the untreated group (T/C). The optimal value is the minimal T/C ratio that reflects the maximal tumor growth inhibition achieved. The criterion for efficacy for the T/C ratio is ≦42%, according to National Cancer Institute (NCI) standard criteria (44).
(§6) Efficacy of drug therapy against tumors was standardized to the time (t) required for the untreated tumor to grow to a determined size based on the greatest difference in time to reach a tumor volume between the control and treatment group. This value can be represented as the growth delay (in days) between treated and control (tt−tc) (44).
(§7) Tumor growth and hIgG levels were analyzed in terms of treatment group means and standard error. Student's t-test was applied to determine the statistical significance of differences between treatment groups. Minimal significance level was P<0.05.

LAGκ-1B tumor = test: Intramuscular LAGκ-1B tumor xenograft model (tumor volume); settings: for delay of tumor volume growth to 300 mm^3: oral 5 mg/kg daily; for delay of tumor volume at 220 mm^3 / Percentage T/C: oral 10 mg/kg twice weekly
Procedure: as §1, §2
as §3, with “Melphalan (1 mg/kg) was provided via weekly intraperitoneal (IP) injections (W).” left out
as §4, §5, §6, §7

LAGλ-1 = LAGλ-1 MM tumor model; format: in vivo; settings: COMPOUND 1 monotherapy
[1] = bortezomib 0.5 mg/kg IV, COMPOUND 1 1 mg/kg IV, alone or together

## CC(C)C[C@H](NC(=O)[C@@H](NC(=O)c1cccc(-c2ccccc2)n1)[C@@H](C)O)B(O)O [COMPOUND 1, [(1R)-1-[[(2S,3R)-3-hydroxy-2-[6-phenyl-pyridine-2-carbonyl)amino]-1-oxobutyl]amino]-3-methylbutylboronic acid]
LAGκ-1A tumor; 1 mg/kg and 3 mg/kg IV twice weekly, P=0.0001 / P=0.0002 vs control
  serum hIgG levels: essentially undetectable
LAGκ-1A tumor; COMPOUND 1 1 mg/kg IV, bortezomib 0.5 mg/kg IV, twice weekly
  serum hIgG levels and tumor volume vs vehicle: only partially inhibited
LAGκ-1A tumor; IV 1 or 3 mg/kg twice weekly, after 4 weeks, P=0.0001
  reduction in the volume of tumors vs control: approximately 15 fold
LAGκ-1A tumor; melphalan 1 mg/kg IP weekly, COMPOUND 1 1 mg/kg IV twice weekly, 3 weeks
  serum hIgG levels and tumor volume vs vehicle: nonsignificant decrease
LAGκ-1A tumor; mouse, in vivo, po, 5 mg/kg
  delay of tumor volume growth to 87.5 mm^3: 53 days
  tumor inhibition (hIgG, tumor volume): significant tumor inhibition
LAGκ-1A tumor; oral 5 mg/kg daily
  mice died of drug-related toxicity: Two of fifteen
LAGκ-1A tumor; oral 5 mg/kg daily, vs untreated control
  delay of tumor volume growth to 87.5 mm^3: 530%
LAGκ-1A tumor; oral 10 mg/kg twice weekly
  mice surviving five weeks of dosing and three week follow-up: 15/15
LAGκ-1A tumor; oral 10 mg/kg twice weekly, day 21
  Percentage T/C: 29.3%
LAGκ-1A tumor; oral 10 mg/kg twice weekly, day 28
  Percentage T/C: 17.3%
LAGκ-1A tumor; oral 10 mg/kg twice weekly, day 32.5 control vs day 63
  delay of tumor volume growth to 700 mm^3: 30.5 days
LAGκ-1A tumor; oral 10 mg/kg twice weekly, day 35
  Percentage T/C: 6.1%
LAGκ-1A tumor; oral 10 mg/kg twice weekly, day 42
  Percentage T/C: 6.1%
LAGκ-1A tumor; oral 10 mg/kg twice weekly, day 49
  Percentage T/C: 10.6%
LAGκ-1A tumor; oral 10 mg/kg twice weekly, three weeks (day 28), hIgG P=0.0011, tumor volume P=0.001
  human paraprotein secretion and tumor volume: significant inhibition of both human paraprotein secretion and reduction of tumor volume
LAGκ-1A tumor; oral 10 mg/kg twice weekly, vs no treatment
  delay of tumor volume growth to 700 mm^3: 93.8%
LAGκ-1A tumor; oral (10 mg/kg twice weekly), 14 days of treatment, P=0.0002
  tumor volume vs control-treated tumors: marked reduction in tumor volume
LAGκ-1A tumor; oral (10 mg/kg twice weekly), P=0.0001
  serum hIgG levels: negligible
LAGκ-1A tumor; oral (10 mg/kg twice weekly), within 2 weeks of treatment, P=0.0007
  serum hIgG levels vs control-treated animals: significantly lower
LAGκ-1A tumor; oral, daily, 3 mg/kg
  anti-myeloma activity (human IgG levels and tumor volumes): moderate anti-myeloma activity
LAGκ-1A tumor; single-agent IV twice weekly, escalating doses
  paraprotein secretion from tumors: dose-dependent decrease in paraprotein secretion
LAGκ-1B tumor; 3 mg/kg IV or 10 mg/kg oral twice weekly, after 14 days, P=0.0008 / P=0.0028
  tumors, times smaller than control-treated mice: 8 to 12 times
LAGκ-1B tumor; [1]
  days to tumor progression: 35 days
  survival longer than vehicle-treated mice: 20%
LAGκ-1B tumor; bortezomib 0.5 mg/kg IV, COMPOUND 1 1 mg/kg IV, alone or together, combination after 21 days P=0.0014
  tumor growth vs vehicle: only modestly suppresses
LAGκ-1B tumor; by day 70, bortezomib 0.5 mg/kg IV, COMPOUND 1 1 mg/kg IV, alone or together
  drug-related / toxicity-related deaths: one death each
LAGκ-1B tumor; mouse, in vivo
  tumor volume: partially inhibited
LAGκ-1B tumor; mouse, in vivo, po
  body weight: without significant loss of body weight
LAGκ-1B tumor; oral 5 mg/kg daily or 10 mg/kg twice weekly, day 35, P=0.0327 / P=0.0018
  tumor volume inhibition: significant tumor volume inhibition
LAGκ-1B tumor; day 31 control vs day 42
  delay of tumor volume growth to 300 mm^3: 11 days
LAGκ-1B tumor; vs no treatment
  delay of tumor volume growth to 300 mm^3: 35.5%
LAGκ-1B tumor; day 28 control vs day 42
  delay of tumor volume at 220 mm^3: 14 days
LAGκ-1B tumor; day 35
  Percentage T/C: 21.6%
LAGκ-1B tumor; day 42
  Percentage T/C: 27.5%
LAGκ-1B tumor; day 49
  Percentage T/C: 26.1%
LAGκ-1B tumor; day 56
  Percentage T/C: 30.5%
LAGκ-1B tumor; vs untreated control
  delay of tumor volume at 220 mm^3: 50%
LAGλ-1
  Ig levels and tumor volumes: statistically significant reduction
